{"source": "patent US10736856B2", "about": "“Use of xibornol as active agent in the treatment of viral infections” (priority 2016, dated 2020)", "experiment_in_all_cases": "Xibornol virucidal efficacy test (UNI EN 14476 adapted), residual viral titer by Karber micromethod", "details_in_all_cases": "for Average viral titre after 15 minutes contact / Logarithmic reduction: 15 minutes contact", "key": {"[1]": {"system": "Human Rhinovirus", "type": "cell-based, Human Rhinovirus A (ATCC VR-286), titrated on HeLa", "experimental": "(§1) The experimentation was conducted by using the following strains from ATCC: • VR-5 Human Adenovirus 5; Strain: Adenoid 75, • VR-286 Picornaviridae, Rhinovirus, Human Rhinovirus A, • VR-740 Human Coronavirus.\n(§2) The cell lines used for the isolation of the target viruses were: • ATCC CCL-2 HeLa—Cervical Adenocarcinoma—Human (Homo sapiens), briefly ‘HeLa’, for the study of Human Adenovirus 5 and Human Rhinovirus, and • ATCC CCL-171 MRC-5-Lung Fibroblast-Human (Homo Sapiens), briefly ‘MRC-5’ for the study of Human Coronavirus.\n(§3) The tests to assess the toxicity of xibornol were performed as per UNI EN 14476 protocol, which refers to the “virucidal activity of chemical disinfectants or antiseptics for tools, surfaces or hands forming a physically stable homogeneous mixture when diluted with hard water or water”, suitably adapted, also considering that xibornol is soluble in alcohol (ethanol) that is already well known to have toxic effects for cell cultures.\n(§4) Therefore, it was decided to use preparations in which xibornol was diluted with different solvents, in order also to be able to test both the solution and the suspension condition. After several tests, a reliable method was set up, by using Labrasol®, namely caprylocaproyl polyoxyl-8 glyceride, as solvent and formulating xibornol in solution.\n(§5) For each of the 3 viruses, 3 replicates were performed with 10 mL mixtures consisting of: • 1 mL Labrasol® (“clean” tests) or 1 mL of fetal bovine serum (“dirt” tests); • 8 mL xibornol for each dilution (8%, 3%, 0.5%) at the non-toxic concentration for the cell cultures: 10^−3, 10^−2 and 10^−1 respectively, and corresponding to 0.008 g/100 mL, 0.030 g/100 mL and […]. Dilutions made in Labrasol®; • 1 mL of virus with known titer.\n(§6) The tests carried out in “dirt” situations, specified by the standard protocol, were intended to create a more “difficult” environment for the performance of the virucidal activity by xibornol, hindered in its activity by the presence of further polluting components, as actually happens in the application environment of the active ingredient, allowing recreating and simulating as closely as possible the conditions of use.\n(§7) For tests performed in “dirt” condition, the erythrocytes were not mixed with the bovine fetal serum, as indicated by the European standard, because of the interfering effect they have towards the cell lines used in the tests, which would have led to difficulties in interpreting the results.\n(§8) Moreover, for each replicate, a negative control was used, consisting of: • 1 mL virus; • 9 mL Labrasol® (“clean” tests) or 8 mL Labrasol®+1 mL fetal bovine serum (“dirt” tests).\n(§9) Contact time: 15 minutes.\n(§10) After this interval, the mixtures were analysed to assess the residual viral titer by titration, Karber micromethod.\n(§11) The data obtained were analysed with the Excel program for the evaluation of averages and total logarithmic standard deviations."}, "[2]": {"system": "Human Adenovirus 5", "type": "cell-based", "experimental": "as §1, §2, §3, §4, §5, §6, §7, §8, §9, §10, §11"}, "[3]": {"system": "Human Coronavirus", "type": "cell-based, Human Coronavirus (ATCC VR-740), titrated on MRC-5", "experimental": "as §1, §2, §3, §4, §5, §6, §7, §8, §9, §10, §11"}, "[4]": {"details": "after 15 minutes of contact, all concentrations tested (0.008, 0.030, 0.05 g/100 mL)"}, "[5]": {"details": "extrapolated from trend curve to xibornol 3 g per 100 mL of solution"}, "[6]": {"details": "“clean” test, working concentration 0.008 g/100 mL (8% solution, dilution 10^−3)"}, "[7]": {"details": "“clean” test, working concentration 0.03 g/100 mL (3% solution, dilution 10^−2)"}, "[8]": {"details": "“clean” test, working concentration 0.05 g/100 mL (0.5% solution, dilution 10^−1)"}, "[9]": {"details": "“dirt” test (fetal bovine serum), working concentration 0.008 g/100 mL (8% solution, dilution 10^−3)"}, "[10]": {"details": "“dirt” test (fetal bovine serum), working concentration 0.03 g/100 mL (3% solution, dilution 10^−2)"}, "[11]": {"details": "“dirt” test (fetal bovine serum), working concentration 0.05 g/100 mL (0.5% solution, dilution 10^−1)"}}, "note": "Entries after “also recorded” stand apart in the source; their conditions may differ."}
{"smiles": "Cc1cc(O)c(C2CC3CCC2(C)C3(C)C)cc1C", "note": "(centres unmarked) [xibornol, 4,5-dimethyl-2-[1,7,7-trimethylbicyclo[2.2.1]heptan-2-yl]phenol]", "values": [{"measurement": "killing extent (reduction of viral load)", "setting": "[1]; [4]", "value": "greater than 2 orders of magnitude"}, {"measurement": "final average titer after treatment, extrapolated", "setting": "[1]; [5]", "value": "very close to zero"}, {"measurement": "reduction of the viral load titer (expressed as logarithm), extrapolated", "setting": "[1]; [5]", "value": "at least of two orders of magnitude; also recorded: almost total reduction"}, {"measurement": "Average viral titre after 15 minutes contact", "setting": "[1]; [6]", "value": "2 ± 0.1", "unit": "Log DCP50/mL"}, {"measurement": "Logarithmic reduction", "setting": "[1]; [6]", "value": 2.2}, {"measurement": "Average viral titre after 15 minutes contact", "setting": "[1]; [7]", "value": "1.3 ± 0.5", "unit": "Log DCP50/mL"}, {"measurement": "Logarithmic reduction", "setting": "[1]; [7]", "value": 2.9}, {"measurement": "Average viral titre after 15 minutes contact", "setting": "[1]; [8]", "value": "1.2 ± 0.4", "unit": "Log DCP50/mL"}, {"measurement": "Logarithmic reduction", "setting": "[1]; [8]", "value": 3}, {"measurement": "Average viral titre after 15 minutes contact", "setting": "[1]; [9]", "value": "1 ± 0.1", "unit": "Log DCP50/mL"}, {"measurement": "Logarithmic reduction", "setting": "[1]; [9]", "value": 2.8}, {"measurement": "Average viral titre after 15 minutes contact", "setting": "[1]; [10]", "value": "0.7 ± 0.1", "unit": "Log DCP50/mL"}, {"measurement": "Logarithmic reduction", "setting": "[1]; [10]", "value": 3.1}, {"measurement": "Average viral titre after 15 minutes contact", "setting": "[1]; [11]", "value": "0.8 ± 0.1", "unit": "Log DCP50/mL"}, {"measurement": "Logarithmic reduction", "setting": "[1]; [11]", "value": 3}, {"measurement": "reduction of the viral titer, average", "setting": "[1]; “dirt” tests", "value": "more than two orders of magnitude"}, {"measurement": "reduction of the viral titer, highest reached", "setting": "[1]; “dirt” tests", "value": "≥ 3 orders of magnitude"}, {"measurement": "killing extent (reduction of viral load)", "setting": "[2]; [4]", "value": "greater than 2 orders of magnitude"}, {"measurement": "final average titer after treatment, extrapolated", "setting": "[2]; [5]", "value": "very close to zero"}, {"measurement": "reduction of the viral load titer (expressed as logarithm), extrapolated", "setting": "[2]; [5]", "value": "at least of two orders of magnitude; also recorded: almost total reduction"}, {"measurement": "Average viral titre after 15 minutes contact", "setting": "[2]; [6]", "value": "2 ± 0.8", "unit": "Log DCP50/mL"}, {"measurement": "Logarithmic reduction", "setting": "[2]; [6]", "value": 2.4}, {"measurement": "Average viral titre after 15 minutes contact", "setting": "[2]; [7]", "value": "1.3 ± 1", "unit": "Log DCP50/mL"}, {"measurement": "Logarithmic reduction", "setting": "[2]; [7]", "value": 3.1}, {"measurement": "Average viral titre after 15 minutes contact", "setting": "[2]; [8]", "value": "1.1 ± 0.1", "unit": "Log DCP50/mL"}, {"measurement": "Logarithmic reduction", "setting": "[2]; [8]", "value": 3.3}, {"measurement": "Average viral titre after 15 minutes contact", "setting": "[2]; [9]", "value": "1.1 ± 0.6", "unit": "Log DCP50/mL"}, {"measurement": "Logarithmic reduction", "setting": "[2]; [9]", "value": 2}, {"measurement": "Average viral titre after 15 minutes contact", "setting": "[2]; [10]", "value": "1.2 ± 0.6", "unit": "Log DCP50/mL"}, {"measurement": "Logarithmic reduction", "setting": "[2]; [10]", "value": 1.9}, {"measurement": "Average viral titre after 15 minutes contact", "setting": "[2]; [11]", "value": "0.8 ± 0.5", "unit": "Log DCP50/mL"}, {"measurement": "Logarithmic reduction", "setting": "[2]; [11]", "value": 2.3}, {"measurement": "reduction of the viral titer, average", "setting": "[2]; “dirt” tests", "value": "more than two orders of magnitude"}, {"measurement": "killing extent (reduction of viral load)", "setting": "[3]; [4]", "value": "greater than 2 orders of magnitude"}, {"measurement": "killing peak (reduction of viral load)", "setting": "[3]; after 15 minutes of contact, highest value reached", "value": "3.8 orders of magnitude"}, {"measurement": "final average titer after treatment, extrapolated", "setting": "[3]; [5]", "value": "very close to zero"}, {"measurement": "reduction of the viral load titer (expressed as logarithm), extrapolated", "setting": "[3]; [5]", "value": "at least of two orders of magnitude; also recorded: almost total reduction"}, {"measurement": "Average viral titre after 15 minutes contact", "setting": "[3]; [6]", "value": "1.8 ± 0.7", "unit": "Log DCP50/mL"}, {"measurement": "Logarithmic reduction", "setting": "[3]; [6]", "value": 3.4}, {"measurement": "Average viral titre after 15 minutes contact", "setting": "[3]; [7]", "value": "1.4 ± 0", "unit": "Log DCP50/mL"}, {"measurement": "Logarithmic reduction", "setting": "[3]; [7]", "value": 3.8}, {"measurement": "Average viral titre after 15 minutes contact", "setting": "[3]; [8]", "value": "1.6 ± 0.3", "unit": "Log DCP50/mL"}, {"measurement": "Logarithmic reduction", "setting": "[3]; [8]", "value": 3.6}, {"measurement": "Average viral titre after 15 minutes contact", "setting": "[3]; [9]", "value": "1.7 ± 0.7", "unit": "Log DCP50/mL"}, {"measurement": "Logarithmic reduction", "setting": "[3]; [9]", "value": 2.3}, {"measurement": "Average viral titre after 15 minutes contact", "setting": "[3]; [10]", "value": "1.5 ± 0.6", "unit": "Log DCP50/mL"}, {"measurement": "Logarithmic reduction", "setting": "[3]; [10]", "value": 2.6}, {"measurement": "Average viral titre after 15 minutes contact", "setting": "[3]; [11]", "value": "1.6 ± 0.4", "unit": "Log DCP50/mL"}, {"measurement": "Logarithmic reduction", "setting": "[3]; [11]", "value": 2.5}, {"measurement": "reduction of the viral titer, average", "setting": "[3]; “dirt” tests", "value": "more than two orders of magnitude"}]}
